Measured values as given in patent publication US6855549B1, “Methods and compositions for increasing the infectivity of gene transfer vectors” (The University of Iowa Research Foundation, priority 1998, dated 2005).

How the values were obtained:
[1] = test system: primary cultures of human airway epithelia; experiment: EGTA dose range for gene transfer on primary cultures of human airway epithelia; format: cell-based; conditions: MuLV or FIV based retroviruses, MOI 10, range tested 0-96 mM, 4 hrs apical
Protocol: The optimal dose range for EGTA was determined on primary cultures of human airway epithelia Gene transfer efficiency with apical application of MuLV or FIV based retrovirus (MOI 10) or adenovirus (MOI 50) was determined over a range of EGTA concentrations from 0-96 mM. The vectors were diluted 1:1 (vol/vol) with a buffer consisting of water, 10 mM HEPES and the appropriate amount of EGTA. The vector formulation was left on the apical surface of the cells for 4 hrs, then removed. Gene transfer efficiency was evaluated 3 days later by X-gal staining for beta galactosidase expression.

[2] = test system: rabbit tracheal epithelium; experiment: Retroviral or adenoviral gene transfer to rabbit tracheal epithelium after EGTA pretreatment; format: in vivo; conditions: retroviral (MuLV, KGF pretreated) or adenoviral vector, three days
Protocol: Gene transfer to the rabbit tracheal epithelium In Vito. Adult New Zealand white rabbits were anesthetized with 32 mg/kg ketamnine, 5.1 mg/kg xylazine and 0.8 mg/kg acepromazine intramuscularly. Using sterile technique, a ventral midline incision was made, exposing the trachea for tracheotomy. A ˜1.5 cm tracheal segment cephalad to the tracheotomy was isolated, and cannulated on each end with PE 330 tubing (Clay Adams, Becton Dickinson). The tracheal segment was first rinsed and then filled with a solution of 12 mM EGTA in water for 45 min. The EGTA solution was removed, and as replaced with 300 μl of retrovirus (titer 3×10^9 cfu/ml) or adenovirus (titer 1×10^10 pfu/ml) vector. In control animals, saline was substituted for water and EGTA treatment. Animals that received the MuLV retrovirus were pretreated with keratinocyte growth factor (KGF) prior to gene transfer to stimulate epithelial proliferation (˜5 mg/kg intravenously and 600 μg via nasal instillation for 3 doses given 36, 24 and 12 hr preceding the procedure) (Wang et al., 1998; Wang et al., 1999). The vector solution was left in place for an additional 45 min. and then the cannulae were removed, the incisions closed, and animals were allowed to recover. Three days later, animals were sacrificed, and the tissues studied for β-galactosidase expression.

[3] = test system: differentiated human airway epithelial cells; format: cell-based

O=C(O)CN(CCOCCOCCN(CC(=O)O)CC(=O)O)CC(=O)O [EGTA]
EGTA concentration giving greatest gene transfer (percentage of blue cells) [1]: 6 to 12 mM
gene transfer to tracheal epithelium after pretreatment with 12 mM EGTA in water [2]: transduced cells throughout the tracheal epithelium
effect of EGTA solution alone on cell proliferation (BrdU histochemistry) [3]: had no effect on cell proliferation
